Patent US11903955B2, “Methods of treating heart failure with reduced ejection fraction” (ASTRAZENECA AB, priority 2019, dated 2024)
Where two headings read alike, the source gives them in different places.

Columns and labels:
[1] = tested on: patients with chronic heart failure with reduced ejection fraction (LVEF ≤40%); conditions: for Any serious adverse event (including death), % of patients / Any serious adverse event (including death), No. of patients: safety population
Description: All the patients provided written informed consent and entered a 14-day enrollment period during which the trial inclusion and exclusion criteria were checked and baseline information gathered, including findings from clinical examination and laboratory measurements. […] Investigators used an interactive voice or web response system to obtain treatment assignment. Randomization was stratified based on a diagnosis of type 2 diabetes, defined as either an established diagnosis or a HbA1c level of 6.5% or greater (≥48 mmol/mol) confirmed in a central laboratory at screening. Patients were evaluated at 14 days and 60 days after randomization, with a focus on assessment of heart failure and volume status, adverse events, and checking renal function and potassium. Further study visits took place at 4 months and at 4-month intervals thereafter. The protocol required that study drug be permanently discontinued if pregnancy or diabetic ketoacidosis occurred.
KCCQ total symptom score was analyzed as a composite rank-based endpoint, incorporating patient vital status at 8 months along with change in score from baseline to 8 months in surviving patients, using the rank analysis of covariance method, with a corresponding win ratio used to estimate the magnitude of treatment effect.^17 The consistency of the treatment effect among 14 prespecified subgroups were assessed. The prespecified safety analyses included: serious adverse events; adverse events associated with discontinuation of study treatment; “adverse events of interest” i.e., volume depletion, renal events, major hypoglycemic events, bone fractures, diabetic ketoacidosis, amputations; Fournier's gangrene; and laboratory findings of note. […] Fisher's exact test was used to compare rates of adverse events. Analyses were performed using Stata, version 15 (College Station Tex., USA) and R version 3.5.1 (R Foundation for Statistical Computing, Vienna, Austria).

[2] = tested on: patients with chronic heart failure with reduced ejection fraction (LVEF ≤40%); conditions: for NT-proBNP, between-treatment difference: baseline to 8 months; for decrease in NT-proBNP: between baseline and 8 months
Protocol: Data from all randomly assigned patients were included in the analyses of the primary and secondary outcomes, according to the intention-to-treat principle. Baseline characteristics were summarized as means and standard deviations, medians and inter-quartile ranges, or percentages. Longitudinal measures, such as glycated hemoglobin level (HbA1c) and body weight, were analyzed using mixed model for repeated measurements, and the least-squares mean differences between treatment groups were estimated, together with 95% confidence intervals. Time-to-event data were evaluated with the use of Kaplan-Meier estimates and Cox proportional hazards models, stratified by diabetes status, with history of heart failure hospitalization and treatment as fixed-effect factors (for the renal endpoint, baseline eGFR was included instead of history of heart failure hospitalization); hazard ratios, 95% confidence intervals, and two-sided P values were calculated with the use of the Cox models.

patients with HFrEF = conditions: for Mild hyperkalemia (>5.5 mmol/L), HR (95% CI) / Moderate/Severe hyperkalemia (>6.0 mmol/L), HR (95% CI): dapagliflozin vs placebo; for Mild hyperkalemia (>5.5 mmol/L), No. events/patients: excluding baseline K+ > 5.5; for Moderate/Severe hyperkalemia (>6.0 mmol/L), No. events/patients: excluding baseline K+ > 6.0
Description: Hyperkalemia often limits the use of mineralocorticoid receptor antagonists (MRAs) in patients with heart failure and reduced ejection fraction (HFrEF), denying these patients a life-saving therapy.

[3] = tested on: patients with HFrEF without diabetes; conditions: individuals without diabetes at baseline
Description: FIG. 17 describes incidence of new onset T2D (HbA1c ≥6.5%) measured at 2 consecutive study visits post-randomization or investigator-reported new T2D vs placebo patients with previously undiagnosed diabetes, i.e., HbA1c ≥6.5%
Patients also had measurement of a glycated hemoglobin (HbA1c) level in a central laboratory at visit 1 and again at visit 2 (the randomization visit), which occurred 14 (±7) days later. For this prespecified subgroup analysis, patients were categorized as having diabetes if there was a history of diabetes or the glycated hemoglobin was at least 6.5% (≥48 mmol/mol) at both visits 1 and 2. Patients with a glycated hemoglobin level <5.7% ([…]) at both visits 1 and 2 were considered to have a normal glycated hemoglobin. For the purposes of this study, patients with a glycated hemoglobin ≥5.7% and <6.5% were considered to have pre-diabetes. Id.

[4] = baseline to 8 month, dapagliflozin vs placebo

## CCOc1ccc(Cc2cc([C@@H]3O[C@H](CO)[C@@H](O)[C@H](O)[C@H]3O)ccc2Cl)cc1 [Dapagliflozin, dapagliflozin]
[1]; No T2DM (N = 1295)
  Any serious adverse event (including death), % of patients: (34.6) %
  Any serious adverse event (including death), No. of patients: 448 patients
[1]; T2DM (N = 1073)
  Any serious adverse event (including death), % of patients: (41.7) %
  Any serious adverse event (including death), No. of patients: 447 patients
[1]; human, in vivo
  Adverse events of interest: Fournier gangrene, % of patients: (0) %
  Adverse events of interest: Fournier gangrene, No. of patients: 0 patients
  Adverse events of interest: Fracture, % of patients: (2.1) %
  Amputation, No. (%): 13 (0.5) No. (%)
  Diabetic Ketoacidosis, No. (%): 3 (0.1) No. (%)
  Discontinuation of study drug due to adverse event, No. (%): 111 (4.7) No. (%)
  Fournier gangrene, No. (%): 0 (0) No. (%)
  Fracture, No. (%): 49 (2.1) No. (%)
  Major hypoglycemia, No. (%): 4 (0.2) No. (%)
  Serious adverse events related to volume depletion, patients (%): 29 dapagliflozin treated patients (1.2%) patients (%)
  Serious renal adverse events, patients (%): 38 dapagliflozin treated patients (1.6%) patients (%)
[1]; in vivo
  Fournier gangrene, No. (%): No case
  amputation, cases: twelve
  amputation, patients: one
[1]; safety population n = 2368
  Any serious adverse event (including death), No. (%): 895 (37.8) No. (%)
[2]; baseline to 8 month (Visit 6)
  Change in systolic BP: −1.92 ± 14.92 mmHg
  Change in weight: -0.88 ± 3.86 kg
[2]; baseline to 8 month (Visit 6), only patients with diabetes at baseline
  Change in HbA1c: −0.21 ± 1.14%
[2]; [4]
  Systolic BP, between group difference (95% CI): −1.41 (−2.31 to −0.52), p = 0.002 mmHg
  Weight, between group difference (95% CI): −0.98 (−1.22 to −0.74), p < 0.001 kg
[2]; baseline to 8 month, dapagliflozin vs placebo, only patients with diabetes at baseline
  HbA1c, between group difference (95% CI): −0.25 (−0.36 to −0.14), p < 0.001%
[2]; in vivo
  Change in potassium: 0.07 ± 0.53
  Potassium, between group difference (95% CI): −0.02 (−0.05 to 0.01), p = 0.298
[2]; participants with diabetes, dapagliflozin vs placebo
  NT-proBNP, between-treatment difference: −333 (−562 to −104) pg/ml
[2]; participants with diabetes
  decrease in NT-proBNP: 257 ± 2502 pg/mL
[2]; patients without diabetes, dapagliflozin vs placebo
  NT-proBNP, between-treatment difference: −278 (−485 to −71) pg/ml
[2]; patients without diabetes
  decrease in NT-proBNP: 144 ± 2286 pg/mL
Patients with HFrEF; All patients
  Mild hyperkalemia (>5.5 mmol/L), rate per 100 py: 8.1 per 100 py
  Moderate/Severe hyperkalemia (>6.0 mmol/L), rate per 100 py: 1.0 per 100 py
  Mild hyperkalemia (>5.5 mmol/L), HR (95% CI): 0.93 (0.78-1.11)
  Moderate/Severe hyperkalemia (>6.0 mmol/L), HR (95% CI): 0.64 (0.42-0.99)
  Mild hyperkalemia (>5.5 mmol/L), No. events/patients: 243/2292
  Moderate/Severe hyperkalemia (>6.0 mmol/L), No. events/patients: 34/2358
Patients with HFrEF; MRA treated at baseline
  Mild hyperkalemia (>5.5 mmol/L), rate per 100 py: 8.6 per 100 py
  Moderate/Severe hyperkalemia (>6.0 mmol/L), rate per 100 py: 0.9 per 100 py
  Mild hyperkalemia (>5.5 mmol/L), HR (95% CI): 0.86 (0.70-1.05)
  Moderate/Severe hyperkalemia (>6.0 mmol/L), HR (95% CI): 0.50 (0.29-0.85)
  Mild hyperkalemia (>5.5 mmol/L), No. events/patients: 180/1632
  Moderate/Severe hyperkalemia (>6.0 mmol/L), No. events/patients: 21/1683
Patients with HFrEF; MRA treated at baseline, listed as dapagliflozin
  Moderate/Severe hyperkalemia (>6.0 mmol/L), HR (95% CI): 0.50 (0.29, 0.85)
Patients with HFrEF; No MRA at baseline
  Mild hyperkalemia (>5.5 mmol/L), rate per 100 py: 7.1 per 100 py
  Moderate/Severe hyperkalemia (>6.0 mmol/L), rate per 100 py: 1.4 per 100 py
  Mild hyperkalemia (>5.5 mmol/L), HR (95% CI): 1.20 (0.84-1.72)
  Moderate/Severe hyperkalemia (>6.0 mmol/L), HR (95% CI): 1.17 (0.52-2.62)
  Mild hyperkalemia (>5.5 mmol/L), No. events/patients: 63/660
  Moderate/Severe hyperkalemia (>6.0 mmol/L), No. events/patients: 13/675
Patients with HFrEF; patients treated with an MRA
  Mild hyperkalemia, patients (%): 180 (11%) patients (%)
  moderate/severe hyperkalemia, patients (%): 21 (1.2%) patients (%)
[3]; dapagliflozin vs placebo (Cox)
  new-onset diabetes, HR: 0.68
[3]; vs placebo
  reduction of new-onset diabetes: 32%
